Results reported in US11304919B2, “Utilization of cilastatin in inhibiting renal disorder” (NIIGATA UNIVERSITY, priority 2018, dated 2022).

Experiments:
[1] = tested on: protein of interest (carrier; megalin ligand); assay: Binding of contrast solid-phased magnetic beads to carrier protein, WB (Reference Example 5); details: 0/3/10 mM iomeprol solid-phased beads; protein 25 ng/μL; 4° C., 4 h; FIG. 21
From the text: A substance that can serve as a carrier for an iodinated contrast medium was selected by reference to the information reported on megalin ligands. To be specific, one protein known to be filtered at the glomeruli and resorbed by renal proximal tubular epithelial cells via megalin was selected among megalin ligands.
The binding specificity between this protein and an iodinated contrast medium was verified using contrast solid-phased magnetic beads by following the procedures described below.
Five milligrams each of the 0 mM/3 mM/10 mM contrast solid-phased beads prepared in Reference Example 4 were dispersed and washed according to the procedure described in Reference Example 4. Next, the protein of interest (produced by LifeSpan BioSciences, Inc.) was dissolved in 100 mM KCL to prepare a 25 ng/μL solution. The above-washed beads were each dispersed in 200 μL of the prepared solution and reacted at 4° C. for 4 hours. Then, heat-eluted samples were prepared by following the procedure described in Reference Example 4.
The procedures for sample electrophoresis and WB analysis were performed in accordance with Reference Example 4. An antibody against the protein of interest (a polyclonal antibody produced by Bioss Inc.) was added at a concentration of 2 μg/mL and reacted at room temperature for 2 hours.

megalin [2] = assay: EPMA mapping of iodine in kidney tissue of kidney-specific megalin complete knockout (NDRG1-Cre) and control mice (Reference Example 2); details: kidney-specific megalin complete knockout mice; 200 μL tail vein; kidneys extracted 3 h later; FIGS. 4-9
From the text: (§1) EPMA is an electron microprobe (EMP) instrument that analyzes the constituent elements of a substance of interest by irradiating electron beams onto the substance and measuring the wavelengths and intensities of characteristic X-rays unique to the different elements, which are generated by the electron beams. […] The behaviors of contrast media per se can be verified by analyzing iodine content distribution.
(§2) In order to use right kidneys for analysis, 3 mm-thick sections containing a kidney pedicle portion were prepared, embedded in OCT compound, freeze-fixed with liquid nitrogen, and stored at −80° C.
(§3) Next, the stored sections were sliced at a thickness of 4 μm using a cryostat (CM1850, Leica Biosystems), and the obtained slices were attached onto carbon-coated grids and freeze-dried overnight.
(§4) 378 μm^2 cortical areas in the prepared tissue slices were analyzed by EPMA (EPMA 1610, Shimadzu Corporation, Kyoto, Japan) to map iodine present in the structures of the contrast media.

megalin [3] = target: megalin (Mus musculus, UniProt A2ARV4); assay: as above; details: control (uninduced) mice; 200 μL tail vein; kidneys extracted 3 h later; FIGS. 4-9
From the text: as §1, §2, §3, §4

megalin [4] = assay: Contrast nephropathy model in kidney-specific megalin partial knockout mice (apoE-Cre), megalin/KIM-1 immunostaining (Reference Example 3); format: in vivo, mouse; details: 200 μL iomeprol, 48 h after administration, FIGS. 10A-10C
Method: Similar murine models of contrast nephropathy to those of Reference Example 1 were constructed using kidney-specific megalin partial knockout mice (apoE-Cre), and were used to verify the involvement of megalin in the onset of contrast-induced renal injuries.
Left kidneys were extracted from the apoE-Cre knockout mice, and 14 days later, right kidney pedicles were ligated for 30 minutes. Thereafter, reperfusion was carried out. After 24 hours from the start of reperfusion, 200 μL of iomeprol or normal saline was administered from the tail vein.
The stained slices were mounted with Slow Fade Gold Antifade Reagent (Life Technologies) and observed using a fluorescence microscopy (BZ-9000, Keyence). In particular, it was verified whether megalin and KIM-1 were expressed in the S1 and S2 segments of renal proximal tubules.

megalin [5] = target: megalin (Rattus norvegicus, UniProt P98158); assay: Direct binding of contrast solid-phased magnetic beads to megalin in brush border proteins, WB with anti-megalin antibody (Reference Example 4); design: the cortex portions of Sprague-Dawley (SD) rats were ground to prepare a suspension; from tissue; host or cells: Sprague-Dawley rat kidney cortex (brush border proteins, method of Orlando et al.); details: 0 mM and 10 mM iomeprol solid-phased beads; rat BBP 1 mg/mL; 4° C., 4 h; FIG. 20
Method: Direct binding between an iodinated contrast medium and megalin was verified using contrast solid-phased magnetic beads.
A starting powder of iodinated contrast medium was dissolved, just before use, in glycidylmethacrylate-coated magnetic beads (FG Beads®, particle size: 0.2 μm, produced by Tamagawa Seiki Co., Ltd.) to initiate chemical bonding between surface carboxyl groups and hydroxyl groups present in the contrast medium, whereby contrast solid-phased magnetic beads were prepared.
The contrast medium iomeprol was purchased from BOC Science.
At feed concentrations of 0 mM, 3 mM and 10 mM, iomeprol was brought to a solid phase by chemical bonding. The preparation of the iomeprol solid-phased beads was contracted to Tamagawa Seiki Co., Ltd.
According to the method of Orlando, et al. (Proc. Natl. Acad. Sci. USA, 1992, vol. 89, p. 6698-6702), the cortex portions of Sprague-Dawley (SD) rats were ground to prepare a suspension, which was adjusted to a protein concentration of 1 mg/mL to obtain a BBP solution.
Five milligrams each of the 0 mM and 10 mM contrast solid-phased magnetic beads were dispersed and washed in 200 μL of 100 mM KCL buffer (20 mM HEPES-NaOH (pH 7.9), 100 mM KCl, 1 mM MgCl2, 0.2 mM CaCl2), 0.2 mM EDTA, 10% (v/v) glycerol, 0.1% NP-40, 1 mM DTT, 0.2 mM PMSF). […]

megalin (Mus musculus, UniProt A2ARV4), sequence (A2ARV4 26-4660): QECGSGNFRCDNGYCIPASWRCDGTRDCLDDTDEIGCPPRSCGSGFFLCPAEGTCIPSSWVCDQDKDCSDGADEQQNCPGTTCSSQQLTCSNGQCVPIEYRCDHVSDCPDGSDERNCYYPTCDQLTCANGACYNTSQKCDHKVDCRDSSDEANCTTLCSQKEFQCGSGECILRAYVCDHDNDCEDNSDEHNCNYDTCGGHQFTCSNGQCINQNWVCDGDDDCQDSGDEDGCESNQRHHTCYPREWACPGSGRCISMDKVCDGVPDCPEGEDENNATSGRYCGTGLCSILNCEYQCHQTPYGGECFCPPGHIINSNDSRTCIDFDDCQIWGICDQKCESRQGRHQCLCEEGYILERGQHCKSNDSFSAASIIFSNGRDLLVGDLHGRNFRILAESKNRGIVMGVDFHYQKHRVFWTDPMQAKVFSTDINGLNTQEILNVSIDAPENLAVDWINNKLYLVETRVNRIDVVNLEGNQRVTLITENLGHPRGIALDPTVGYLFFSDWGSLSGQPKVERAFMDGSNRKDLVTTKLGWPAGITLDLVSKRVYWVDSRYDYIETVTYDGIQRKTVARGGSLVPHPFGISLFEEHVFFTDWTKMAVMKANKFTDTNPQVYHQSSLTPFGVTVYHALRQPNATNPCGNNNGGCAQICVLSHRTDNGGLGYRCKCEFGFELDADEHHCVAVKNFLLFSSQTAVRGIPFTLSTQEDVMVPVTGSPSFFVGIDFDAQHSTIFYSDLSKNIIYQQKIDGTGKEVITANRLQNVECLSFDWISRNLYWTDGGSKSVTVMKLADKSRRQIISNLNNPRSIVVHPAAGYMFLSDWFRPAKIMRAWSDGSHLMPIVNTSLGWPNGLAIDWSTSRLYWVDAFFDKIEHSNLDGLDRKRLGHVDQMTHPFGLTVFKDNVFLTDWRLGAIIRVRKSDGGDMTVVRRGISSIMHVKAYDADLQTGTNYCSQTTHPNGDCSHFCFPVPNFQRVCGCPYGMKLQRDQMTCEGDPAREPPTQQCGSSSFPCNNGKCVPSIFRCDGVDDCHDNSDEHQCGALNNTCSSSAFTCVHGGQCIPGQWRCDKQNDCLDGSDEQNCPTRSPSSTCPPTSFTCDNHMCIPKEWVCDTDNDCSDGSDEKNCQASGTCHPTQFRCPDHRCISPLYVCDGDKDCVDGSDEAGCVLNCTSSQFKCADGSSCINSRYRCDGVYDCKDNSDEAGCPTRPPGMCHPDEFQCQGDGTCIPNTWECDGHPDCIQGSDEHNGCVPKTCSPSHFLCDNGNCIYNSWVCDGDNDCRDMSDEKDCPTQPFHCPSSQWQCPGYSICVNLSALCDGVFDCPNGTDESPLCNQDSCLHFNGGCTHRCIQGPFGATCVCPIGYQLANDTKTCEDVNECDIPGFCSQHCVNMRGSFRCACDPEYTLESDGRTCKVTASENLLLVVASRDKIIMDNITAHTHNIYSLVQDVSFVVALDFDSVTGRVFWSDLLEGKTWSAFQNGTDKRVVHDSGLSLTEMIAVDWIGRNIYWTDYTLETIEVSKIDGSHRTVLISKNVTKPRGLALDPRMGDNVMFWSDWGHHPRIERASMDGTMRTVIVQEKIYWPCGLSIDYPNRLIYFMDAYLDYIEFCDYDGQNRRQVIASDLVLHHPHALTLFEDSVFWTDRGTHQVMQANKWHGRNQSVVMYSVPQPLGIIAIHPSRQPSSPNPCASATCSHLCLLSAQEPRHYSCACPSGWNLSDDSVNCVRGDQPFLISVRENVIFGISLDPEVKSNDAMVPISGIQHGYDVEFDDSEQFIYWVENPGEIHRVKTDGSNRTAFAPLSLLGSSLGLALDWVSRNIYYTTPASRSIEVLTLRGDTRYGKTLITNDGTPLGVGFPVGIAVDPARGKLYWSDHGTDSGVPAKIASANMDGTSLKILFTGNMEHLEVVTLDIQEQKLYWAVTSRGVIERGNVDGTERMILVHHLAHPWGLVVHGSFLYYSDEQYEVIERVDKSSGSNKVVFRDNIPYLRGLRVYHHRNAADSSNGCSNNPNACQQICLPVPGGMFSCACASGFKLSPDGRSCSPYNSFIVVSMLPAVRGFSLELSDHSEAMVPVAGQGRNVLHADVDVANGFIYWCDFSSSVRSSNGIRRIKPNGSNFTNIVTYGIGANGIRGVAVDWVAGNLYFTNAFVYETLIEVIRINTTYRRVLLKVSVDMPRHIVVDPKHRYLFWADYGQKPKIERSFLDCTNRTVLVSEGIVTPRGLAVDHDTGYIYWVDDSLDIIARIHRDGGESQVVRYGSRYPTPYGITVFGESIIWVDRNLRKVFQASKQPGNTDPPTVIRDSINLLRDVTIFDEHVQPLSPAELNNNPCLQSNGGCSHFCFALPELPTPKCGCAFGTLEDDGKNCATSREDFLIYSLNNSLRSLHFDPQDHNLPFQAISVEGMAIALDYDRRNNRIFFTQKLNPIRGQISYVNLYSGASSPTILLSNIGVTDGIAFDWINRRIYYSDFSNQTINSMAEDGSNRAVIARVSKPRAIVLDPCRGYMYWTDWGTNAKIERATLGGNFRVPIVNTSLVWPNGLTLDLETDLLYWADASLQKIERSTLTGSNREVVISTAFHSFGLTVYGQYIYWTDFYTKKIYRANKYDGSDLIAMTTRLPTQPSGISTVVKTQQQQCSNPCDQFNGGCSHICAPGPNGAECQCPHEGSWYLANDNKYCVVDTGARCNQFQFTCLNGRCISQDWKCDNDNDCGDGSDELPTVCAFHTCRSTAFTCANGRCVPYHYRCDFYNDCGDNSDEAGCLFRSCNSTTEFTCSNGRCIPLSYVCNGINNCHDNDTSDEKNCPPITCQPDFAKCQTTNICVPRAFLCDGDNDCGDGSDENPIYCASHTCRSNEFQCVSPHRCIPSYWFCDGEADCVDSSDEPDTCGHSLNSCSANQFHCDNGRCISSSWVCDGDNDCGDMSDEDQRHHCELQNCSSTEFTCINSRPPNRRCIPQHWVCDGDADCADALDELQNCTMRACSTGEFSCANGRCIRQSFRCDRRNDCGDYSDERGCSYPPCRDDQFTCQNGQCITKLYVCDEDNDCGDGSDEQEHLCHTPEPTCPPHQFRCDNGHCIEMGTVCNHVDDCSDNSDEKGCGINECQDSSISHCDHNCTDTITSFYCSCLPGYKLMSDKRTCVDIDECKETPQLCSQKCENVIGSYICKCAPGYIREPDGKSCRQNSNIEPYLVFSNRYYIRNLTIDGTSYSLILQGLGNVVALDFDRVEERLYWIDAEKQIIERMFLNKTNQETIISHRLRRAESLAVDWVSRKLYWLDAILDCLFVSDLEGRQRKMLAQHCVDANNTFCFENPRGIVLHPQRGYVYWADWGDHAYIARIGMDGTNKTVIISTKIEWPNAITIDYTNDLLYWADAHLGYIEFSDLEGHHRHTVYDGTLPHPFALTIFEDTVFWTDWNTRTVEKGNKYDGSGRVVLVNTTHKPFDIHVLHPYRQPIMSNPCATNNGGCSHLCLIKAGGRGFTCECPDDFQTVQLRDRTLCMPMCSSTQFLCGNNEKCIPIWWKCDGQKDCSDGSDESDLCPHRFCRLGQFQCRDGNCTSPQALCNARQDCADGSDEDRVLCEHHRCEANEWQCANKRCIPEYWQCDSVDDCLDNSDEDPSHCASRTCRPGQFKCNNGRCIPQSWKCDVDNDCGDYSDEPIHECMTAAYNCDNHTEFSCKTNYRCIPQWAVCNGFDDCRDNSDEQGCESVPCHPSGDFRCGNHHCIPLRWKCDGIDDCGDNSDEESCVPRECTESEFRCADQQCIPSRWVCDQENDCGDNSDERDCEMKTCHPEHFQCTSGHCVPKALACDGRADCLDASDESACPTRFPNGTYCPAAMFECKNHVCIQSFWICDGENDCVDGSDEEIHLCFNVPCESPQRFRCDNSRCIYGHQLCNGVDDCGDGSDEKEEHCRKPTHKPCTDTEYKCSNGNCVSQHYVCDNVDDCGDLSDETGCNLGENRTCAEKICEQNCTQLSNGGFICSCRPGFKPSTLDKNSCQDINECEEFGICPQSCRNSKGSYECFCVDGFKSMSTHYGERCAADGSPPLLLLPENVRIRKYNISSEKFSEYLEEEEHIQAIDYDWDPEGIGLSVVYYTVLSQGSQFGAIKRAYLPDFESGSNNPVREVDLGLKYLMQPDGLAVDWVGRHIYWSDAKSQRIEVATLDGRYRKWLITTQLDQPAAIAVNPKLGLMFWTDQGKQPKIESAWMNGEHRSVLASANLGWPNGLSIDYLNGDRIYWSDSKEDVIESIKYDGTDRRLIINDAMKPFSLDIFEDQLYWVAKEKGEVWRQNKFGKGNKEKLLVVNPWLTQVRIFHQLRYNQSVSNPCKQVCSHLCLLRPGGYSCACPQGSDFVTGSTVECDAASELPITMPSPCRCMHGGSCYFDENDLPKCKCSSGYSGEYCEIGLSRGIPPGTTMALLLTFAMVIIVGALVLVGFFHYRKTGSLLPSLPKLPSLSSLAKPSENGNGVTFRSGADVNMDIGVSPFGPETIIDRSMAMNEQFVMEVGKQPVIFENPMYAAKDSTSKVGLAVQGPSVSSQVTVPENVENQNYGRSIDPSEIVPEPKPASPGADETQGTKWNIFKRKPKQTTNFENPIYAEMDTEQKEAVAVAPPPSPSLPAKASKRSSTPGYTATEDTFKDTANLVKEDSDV

binding of protein of interest to contrast solid phased on beads (WB band, heat-eluted samples) [1]: bound in a specific manner
iodine contents detected in kidney slices by EPMA, NDRG1-Cre mice versus control mice (megalin [2]): lower
megalin band in eluted samples after reaction of BBP with contrast medium-bound beads (WB) (megalin [5]): not detected
Compound: CN(C(=O)CO)c1c(I)c(C(=O)NCC(O)CO)c(I)c(C(=O)NCC(O)CO)c1I (centres unmarked) [iomeprol]
iodine detected in kidney slices by EPMA, control mice (megalin [3]): High concentrations of iodine were detected
KIM-1 expression relative to megalin expression in renal proximal tubular epithelial cells (megalin [4]): expressed in a specific manner in the renal proximal tubular epithelial cells with expression of megalin
